According to patent US12473249B2, “Aromatic compounds and pharmaceutical uses thereof” (BASF AS, priority 2018, dated 2025):
Marks after values point to notes of the source that are not given here.

Key:
Type in all cases: in vivo, mouse
C57BL/6 mice = experiment: Hepatic steatosis and organ mass in oral PN diet fed C57BL/6 mice, subsequent experiment at two dosages (H&E); details: 19 days
Source text: Male C57BL/6 mice, 6 to 8 weeks old at initiation of the experiments, were used for all experimental groups. Mice were fed either an ad libitum diet of standard rodent chow (calorie composition: 26% protein, 14% fat, 60% carbohydrates) and water or a parenteral nutrition (PN) solution that mimics the PN diet used in neonatal intensive care units. The PN solution was a fat-free, high-carbohydrate liquid diet (20% dextrose, 2% essential and nonessential amino acids, 0.2% pediatric trace elements, 0.5% pediatric multivitamins, 30 mEq of sodium, 20 mEq of potassium, 15 mEq of calcium (as calcium gluconate), 10 mEq of magnesium, 10 mEq of phosphate, 5 mEq of acetate, and 30 mEq of chloride per liter) administered as a single 50 mL bottle per cage which mice consumed ad libitum. […] Prince et al., JPEN J Parenter Enteral Nutr., 2014; 38(5): 608-616.
In a subsequent experiment, both Compound A and Compound B were tested at two dosages. The results of this experiment are described in Example 15.
Male C57BL/6 mice, 6 to 8 weeks old at initiation of the experiments, were used for all experimental groups. One group was fed an ad libitum diet of standard rodent chow and water. The group fed standard rodent chow received no additional treatments during the experimental period and served as a negative control group. Seven other groups (10 mice per group) were fed the PN solution described above ad libitum.
Of the seven groups that received the PN diet, each group received one of the following orogastric protocols administered every other day over 19 days: • (1) Saline: saline solution administered isovolumetric with the Omegaven® group; • (2) MCT: medium-chain triglyceride oil (MCT) (Nestle™ HealthCare Nutrition, Florham Park, NJ), at a dose of 7.4 g of fat/kg body weight; • (3) Omegaven®: Omegaven® (commercial fish oil lipid emulsion) at a dose of 2.4 g fat/kg body weight; • (4) Compound A LOW: Compound A at a dose of 0.3 mmol/kg bw day (diluted in MCT to 0.0375 mmol/mL, resulting in administration of 7.4 g of MCT/kg weight); • (5) Compound A HI: Compound A at a dose of 0.6 mmol/kg bw day (diluted in MCT to 0.075 mmol/mL, resulting in administration of 7.4 g of MCT/kg weight); • (6) Compound B LOW: Compound B at a dose of 0.3 mmol/kg bw day (diluted in MCT to 0.0375 mmol/mL, resulting in administration of 7.4 g of MCT/kg weight); and • (7) Compound B HI: Compound B at a dose of 0.6 mmol/kg bw day (diluted in MCT to 0.075 mmol/mL, resulting in administration of 7.4 g of MCT/kg weight).
After 19 days of treatment, organs were harvested, including the liver, kidney, and spleen, which were analyzed for relative weight between each group. Livers were also fixed and frozen on dry ice, then stored at −80° C. for hematoxylin and eosin (H&E) stain analysis and Oil Red O analysis.

APOE*3Leiden mice = experiment: Plasma lipids in high-fat diet fed APOE*3Leiden mice; details: for triglyceride levels over 4 weeks: further study with reference compounds, 0.3 mmol/kg bw/day, FIG. 31
Protocol: The APOE*3Leiden mouse expresses a variant of the human apolipoprotein E3 (APOE3), the APOE*3Leiden, in addition to the human apolipoprotein C1 (APOC1).
Studies were performed in APOE*3Leiden mice (13-15 weeks old) placed on a semi-synthetic high fat diet (24% fat w/w) with 0.25% cholesterol w/w. After a 4-week run-in period, mice were sub-divided into groups of 5 mice each and administration of Compound A, Compound B, or vehicle alone was started. Both Compound B and Compound A were administered at a dose of 0.3 mmol/kg bw/day via diet. Sunflower oil (10 ml v/w) was used as a vehicle to facilitate mixing. After 4 weeks of treatment mice were sacrificed by C02 asphyxiation and plasma cholesterol and triglycerides were measured using commercially available kits (Roche*/Hitachi©).
In a further study, performed as described above, the effects of Compound A, Compound B, and Compound C were compared with the effects of Reference Compound 1 ((Z)-3-(pent-2-en-1-yloxy)benzoic acid) and Reference Compound 2 ((Z)-4-(pent-2-en-1-yloxy)benzoic acid) on triglyceride levels. […] The results of this study are described in Example 17.

[1] = system: hepatic expression of key genes; experiment: Hepatic target gene expression via RNA sequencing in ob/ob AMLN mice; details: 0.3 mmol/kg bw day, 4 weeks treatment
Protocol: (§1) ob/ob mice are consistently fibrosis (liver) prone when cholesterol (2%) and 40% fat (containing 18% trans-fatty acids) and 20% fructose are added to a high-caloric diet (i.e., AMLN diet). ob/ob mice on AMLN diet (termed ‘ob/ob AMLN mice’) develop steatohepatitis and fibrosis within a shorter timeframe (<12 weeks) compared with wild-type C57BL/6 mice (AMLN mice) fed the same diet. ob/ob AMLN mice provide an obese diet-induced model of NASH that also allows the study of effects on glycemic control.
(§2) Thirty male ob/ob mice (5 weeks old) were fed the AMLN diet for 15 weeks then randomised into 3 groups of 10 mice/group to receive Compound B or Compound A (both at 0.3 mmol/kg bw day) or no treatment (vehicle) for a further 4 weeks. Assessment of the hepatic expression of key genes regulating plasma lipid concentrations (LDLr), hepatic fibrosis (collA1), bile acid transport/re-uptake (Slc51b and Slc10a2) and inflammation (CD68) was made via RNA sequencing at 4 weeks. To assess the effects of Compound B and Compound A on glycemic control, an oral glucose tolerance test (OGTT) was also performed at 3 weeks. An additional group of mice (n=5) were also treated with a PPAR-γ agonist (pioglitazone, 30 mg/kg bw day) was also included to compare effects upon bodyweight.

[2] = Relative bodyweight in ob/ob AMLN mice; details: 0.3 mmol/kg bw day, 4 weeks treatment, FIG. 11
Protocol: as §1, §2

ob/ob AMLN mice = experiment: Glycemic control (oral glucose tolerance test, fasting glucose and insulin) in ob/ob AMLN mice; details: 0.3 mmol/kg bw day
Protocol: as §1
as §2, with “To assess the effects of Compound B and Compound A on glycemic control, an oral glucose tolerance test (OGTT) was also performed at 3 weeks.” left out

[3] = oral PN diet, high and low dosages, FIG. 18
[4] = high-fat high-cholesterol diet, 4 weeks treatment
[5] = high-fat high-cholesterol diet, 4 weeks treatment, dose 0.1 mmol/kg bw/day
[6] = high-fat high-cholesterol diet, 4 weeks treatment, dose 0.3 mmol/kg bw/day

| SMILES | development of steatosis induced by an oral PN diet (H&E stain in isolated liver sections) (C57BL/6 mice; 0.3 and 0.6 mmol/kg bw day in MCT by orogastric gavage, FIGS. 14-17) | body mass vs chow-fed or PN-fed saline groups (C57BL/6 mice; [3]) | liver/body mass vs chow-fed or PN-fed saline groups (C57BL/6 mice; [3]) | spleen/body mass vs chow-fed or PN-fed saline groups (C57BL/6 mice; [3]) | plasma TG versus vehicle (APOE*3Leiden mice; [4]) | total plasma cholesterol versus vehicle (APOE*3Leiden mice; [4]) | Reduction in plasma TG vs control (%) (APOE*3Leiden mice; [5]) | Reduction in plasma cholesterol vs control (%) (APOE*3Leiden mice; [5]) | Reduction in plasma TG vs control (%) (APOE*3Leiden mice; [6]) | Reduction in plasma cholesterol vs control (%) (APOE*3Leiden mice; [6]) | hepatic expression of Coll al (collagen1a1) versus vehicle ([1]; FIG. 5) | expression of hepatic LDLr versus vehicle ([1]; FIG. 12) | relative bodyweight versus vehicle [2] | total plasma glucose (area-under-the-curve from 0-240 mins) versus vehicle in response to an oral glucose load (ob/ob AMLN mice; after 3 weeks treatment, FIG. 1) | plasma glucose at 30- and 60-mins versus vehicle in response to an oral glucose load (ob/ob AMLN mice; after 3 weeks treatment, FIG. 2) | fasting plasma insulin versus vehicle (ob/ob AMLN mice; after 4 weeks treatment, FIG. 3) | fasting plasma glucose versus vehicle (ob/ob AMLN mice; after 4 weeks treatment, FIG. 4) | triglyceride levels over 4 weeks (APOE*3Leiden mice) |
| --- | --- | --- | --- | --- | --- | --- | --- | --- | --- | --- | --- | --- | --- | --- | --- | --- | --- | --- |
| CC/C=C\COc1cccc(C(=O)O)c1C [Compound B, (Z)-2-methyl-3-(pent-2-en-1-yloxy)benzoic acid] | prevented the development of steatosis | not significantly different | not significantly different | not significantly different | significantly reduce | significantly reduce | 45** % | 24** % | 63** % | 27** % | significantly reduce | significantly increase | no effect | significantly reduce | significantly reduce | reduce | significantly reduce | – |
| CC/C=C\COc1cccc(C(=O)O)c1 [Reference Compound 1, (Z)-3-(pent-2-en-1-yloxy)benzoic acid, reference compound] | – | – | – | – | – | – | – | – | – | – | – | – | – | – | – | – | – | did affect |
| CC/C=C\COc1ccc(C(=O)O)cc1 [Reference Compound 2, (Z)-4-(pent-2-en-1-yloxy)benzoic acid, reference compound] | – | – | – | – | – | – | – | – | – | – | – | – | – | – | – | – | – | did affect |
